In patent publication US10213428B2, “(4-((3R,4R)-3-methoxytetrahydro-pyran-4-ylamino)piperidin-1-yl)(5-methyl-6-(((2R,6S)-6-(p-tolyl)tetrahydro-2H-pyran-2-yl)methylamino)pyrimidin-4-yl)methanone citrate” (Centrexion Therapeutics Corporation, priority 2015, dated 2019):

Columns and labels:
[1] = Oral pharmacokinetics in mouse; type: in vivo, BALB/c mice; conditions: oral dose 20 μmol/kg
Excerpt: (§1) The pharmacokinetics of the test compound following single intravenous (IV) or oral (PO) doses were examined in • female BALB/c mice (average weight: 25 g) • male Wistar(Han) rats (average weight: 260 g) • male and female Göttingen Minipigs (average weight: 24 kg) • male beagle dogs (average weight: 15 kg) All non-rodent species were fasted overnight prior to dosing, while mice and rats had food and water available ad libitum. The p.o. dose of the compound was usually administered as suspension in 0.5% Natrosol or as a 0.5% Natrosol/0.015% Tween 80 suspension. For i.v. dosing purposes, the doses were applied as a solution in 0.9% NaCL, or as a solution containing 9.1% HP-beta Cyclodextrin in water.
(§2) Blood was collected by venous sampling and soaking of the blood in EDTA coated tubes. Samples were collected for up to 48 h after administration of the test compound. Plasma was then separated by centrifugation (5 min by approximately 9000 g at 4° C.). For determination of the test compound, plasma was transferred into PCR plates. All samples were stored at approximately −20° C. until bioanalytics. The test compound concentrations in plasma were determined by HPLC MS/MS. The lower limit of quantification was between 0.5 nmol/L and 1 nmol/L.

[2] = Oral pharmacokinetics in rat; type: in vivo, Wistar(Han) rats; conditions: oral dose 20 μmol/kg of compound I
Excerpt: as §1, §2

U937 cells = test: In vitro phospholipidosis assay (Nile Red staining, flow cytometry); conditions: 48 hours incubation
Protocol: Cell line: U937. Cell density: 0.5 Mio. cells/mL. Amount of medium: 3 mL/well.
3×0.5 mL suspensions of cells are prepared from each sample for flow cytometry measurement (non-fixed cells for viability determination, non-fixed cells and fixed cells for phospholipidosis analysis).
Immediately before measurement, 12.5 μL of the PI ready to use solution is added per sample (0.5 mL non-fixed cell suspension), which are kept on ice for another 15 min before measurement.
Cut-off gates for the fluorescence-dependent differentiation between life and dead cells are defined based on the analysis of cell culture medium plus vehicle exposed Control cells. Cells with a fluorescence lower than the cut-off are defined as viable. Absolute viability of a sample is the relation of viable cells to total cell number and expressed as percentage.
Immediately before measurement, 50 μL of the NR ready to use solution for live cell staining is added per sample (0.5 mL non-fixed cell suspension). Samples are kept on ice for another 5 min. […]
Both the Nile Red stained non-fixed cells as well as the Nile Red stained fixed cells are measured according the following procedure. […]
For each channel, absolute fluorescence intensity of a specific sample is correlated to the mean absolute fluorescence intensity of all cell culture medium plus vehicle exposed Control cells of the respective experiment. […]

[3] = Oral pharmacokinetics in dog; type: in vivo, beagle dogs; conditions: oral dose 5 μmol/kg
Excerpt: as §1, §2

plasma protein [4] = test: In vitro plasma protein binding (equilibrium dialysis), mouse; type: in vitro ADME; conditions: 1.0 μM, dialysis 2 hours at 37° C.
Protocol: (§3) Dianorm Teflon dialysis cells (micro 0.2) are used. Each cell consists of a donor (i.e., buffer chamber) and an acceptor chamber (i.e., plasma chamber), separated by an ultrathin semipermeable membrane with a 5 kDa molecular weight cutoff. Stock solutions for each test compound are prepared in DMSO at 1 mM and diluted to a final concentration of 1.0 μM. Aliquots of 200 μL dialysis buffer (100 mM potassium phosphate, pH 7.4) are dispensed into the buffer chamber. Aliquots of 200 μL test compound dialysis solution are dispensed into the plasma chambers. Incubation is carried out for 2 hours under rotation at 37° C. Then, the dialysate is transferred into reaction tubes. The tubes for the buffer fraction contain 0.2 mL acetonitril/water (80/20 volume/volume). Aliquots of 25 μL of the plasma dialysate are transferred into deep well plates and mixed with 25 μL acetonitril/water (80/20 volume/volume), 25 μL buffer, 25 μL calibration solution and 25 μL Internal Standard solution. Protein precipitation is done by adding 200 μL acetonitrile. Aliquots of 50 μL of the buffer dialysate are transferred into deep well plates and mixed with 25 μL blank plasma, 25 μL Internal Standard solution and 200 μL acetonitril. Percent bound is calculated with the formula: % bound=(plasma concentration−buffer concentration/plasma concentration)×100.

[5] = as above; type: in vitro ADME; conditions: pH 7.4, dialysis 2 hours at 37° C., read-out: Fraction bound (converted)
Protocol: as §3

plasma protein [6] = test: In vitro plasma protein binding (equilibrium dialysis), minipig; type: in vitro ADME; conditions: 1.0 μM, dialysis 2 hours at 37° C.
Protocol: as §3

[7] = as above; type: in vitro ADME; conditions: pH 7.4, dialysis 2 hours at 37° C., read-out: Fraction bound (converted)
Protocol: as §3

[8] = In vitro metabolic stability in hepatocyte incubations, minipig; type: in vitro ADME; conditions: hepatocytes (suspension); Minipig; predicted from hepatocyte CL intrinsic, well stirred model
Protocol: (§4) Metabolic degradation of the test compound is assayed in a hepatocyte suspension. Hepatocytes are incubated in an appropriate buffer system. Following a (typically) 30 min preincubation in an incubator (37° C., 10% CO2) 5 μL of test compound solution (1 μM) are added into 395 μL hepatocyte suspension (cell density in the range 0.25-5 Mio cells/mL, typically 1 Mio cells/mL, final DMSO concentration 0.05%). The cells are incubated for six hours (incubator, orbital shaker) and samples (25 μL) are taken at 0, 0.5, 1, 2, 4 and 6 hours. Samples are transferred into acetonitrile and pelleted by centrifugation (5 min). The supernatant is transferred to a new 96-deepwell plate, evaporated under nitrogen and resuspended. Decline of parent compound is analyzed by HPLC-MS/MS. CLint is calculated as follows CL_INTRINSIC=Dose/AUC=(CO/CD)/(AUD+clast/k)×1000/60. […]

hepatocytes [9] = test: as above; type: in vitro ADME; conditions: Minipig hepatocytes, 1 μM
Protocol: as §4

[10] = In vitro metabolic stability in hepatocyte incubations, dog; type: in vitro ADME; conditions: hepatocytes (suspension); Dog; predicted from hepatocyte CL intrinsic, well stirred model; read-out: CL, in vivo
Protocol: as §4

hepatocytes [11] = test: as above; type: in vitro ADME; conditions: Dog hepatocytes, 1 μM
Protocol: as §4

plasma protein [12] = test: In vitro plasma protein binding (equilibrium dialysis), rat; type: in vitro ADME; conditions: 1.0 μM, dialysis 2 hours at 37° C.
Protocol: as §3

[13] = as above; type: in vitro ADME; conditions: pH 7.4, dialysis 2 hours at 37° C., read-out: Fraction bound (converted)
Protocol: as §3

[14] = female, BALB/c, plasma, 20 umol/kg, mean values
[15] = male, Wistar(Han), plasma, 20 umol/kg, mean values
[16] = male, beagle, plasma, 5 umol/kg, mean values

Q: Which AUC(0-inf) [1, 14] does the source give for `CO[C@H]1COCC[C@H]1NC1CCN(C(=O)c2ncnc(NC[C@H]3CCC[C@@H](c4ccc(C)cc4)O3)c2C)CC1` [compound I, (4-((3R,4R)-3-methoxytetrahydro-pyran-4-ylamino)piperidin-1-yl)(5-methyl-6-(((2R,6S)-6-(p-tolyl)tetrahydro-2H-pyran-2-yl)methylamino)pyrimidin-4-yl)methanone] here?
A: Its AUC(0-inf) is 3.16 µM·h.

Q: And the Cmax [1, 14]?
A: Its Cmax is 974 nM.

Q: What about the Tmax [1, 14] of the same molecule?
A: The Tmax was 1 h.

Q: What about the MRTtot ([1]; mean values) of the same molecule?
A: The MRTtot was 3.99 h.

Q: And the F ([1]; oral bioavailability)?
A: The F was 79%.

Q: And the AUC(0-inf) [2, 15]?
A: Its AUC(0-inf) is 2.27 µM·h.

Q: And the Cmax [2, 15]?
A: Its Cmax is 580 nM.

Q: And the Tmax [2, 15]?
A: Its Tmax is 1.5 h.

Q: What about the MRTtot ([2]; mean values) of the same molecule?
A: Its MRTtot is 5.49 h.

Q: And the F ([2]; oral bioavailability)?
A: The F was 38%.

Q: And the lowest phospholipidogenic concentration (U937 cells)?
A: Its lowest phospholipidogenic concentration is 200 µM.

Q: What about the “phospholipidogenic potential (in words)” value (U937 cells) of the same molecule?
A: Its value is “propensitiy to be phospholipidogenic”.

Q: What about the AUC(0-inf) [3, 16] of the same molecule?
A: Its AUC(0-inf) is 1.5 µM·h.

Q: And the Cmax [3, 16]?
A: Its Cmax is 317 nM.

Q: And the Tmax [3, 16]?
A: The Tmax was 0.917 h.

Q: What about the MRTtot ([3]; mean values) of the same molecule?
A: The MRTtot was 5.77 h.

Q: And the F ([3]; oral bioavailability)?
A: The F was 25%.

Q: And the Fraction unbound (plasma protein [4])?
A: Its Fraction unbound is 4.9%.

Q: And the fraction unbound at 2 h, 1 μM [5]?
A: The fraction unbound at 2 h, 1 μM was 0.049.

Q: What about the Fraction unbound (plasma protein [6]) of the same molecule?
A: Its Fraction unbound is 39.2%.

Q: And the fraction unbound at 2 h, 1 μM [7]?
A: Its fraction unbound at 2 h, 1 μM is 0.392.

Q: What about the predicted in vivo clearance at 1 μM [8] of the same molecule?
A: Its predicted in vivo clearance at 1 μM is 6.8 mL/min/kg.

Q: What about the “CL intrinsic, in vitro” value (hepatocytes [9]) of the same molecule?
A: The value was 2.73 μL/min/10e6 cells.

Q: And the CLhep predicted at 1 μM [10]?
A: Its CLhep predicted at 1 μM is 14 mL/min/kg.

Q: What about the “CL intrinsic, in vitro” value (hepatocytes [11]) of the same molecule?
A: Its value is 3.15 μL/min/10e6 cells.

Q: What about the Fraction unbound (plasma protein [12]) of the same molecule?
A: Its Fraction unbound is 31.1%.

Q: What about the fraction unbound at 2 h, 1 μM [13] of the same molecule?
A: The fraction unbound at 2 h, 1 μM was 0.311.
